Results as given in the NIST ThermoML archive (doi:10.1016/j.fluid.2005.07.017).
Numbers after ± are expanded uncertainties.

Experiment: xn = mol fraction of the nth substance listed
Conditions: Liquid, Vibrating tube method

c1ccsc1 [thiophene] + O=C=O
Conditions | mass density [kg/m3]
322.95 K, 19000 kPa, x2 = 0.199 | 1032.53 ± 0.43
322.96 K, 8142 kPa, x2 = 0.5661 | 964.89 ± 0.43
322.96 K, 9024 kPa, x2 = 0.5661 | 967.04 ± 0.43
322.96 K, 10004 kPa, x2 = 0.5661 | 969.41 ± 0.43
322.96 K, 11043 kPa, x2 = 0.5661 | 971.85 ± 0.43
322.96 K, 12049 kPa, x2 = 0.5661 | 974.11 ± 0.43
322.96 K, 13009 kPa, x2 = 0.5661 | 976.27 ± 0.43
322.96 K, 14014 kPa, x2 = 0.5661 | 978.41 ± 0.43
322.96 K, 15031 kPa, x2 = 0.5661 | 980.61 ± 0.43
322.96 K, 16040 kPa, x2 = 0.5661 | 982.75 ± 0.43
322.96 K, 17014 kPa, x2 = 0.5661 | 984.76 ± 0.43
322.96 K, 18012 kPa, x2 = 0.5661 | 986.77 ± 0.42
322.96 K, 19036 kPa, x2 = 0.5661 | 988.76 ± 0.42
323.01 K, 1047 kPa, x2 = 0 | 1028.97 ± 0.44
323.01 K, 2059 kPa, x2 = 0 | 1029.98 ± 0.44
323.01 K, 3070 kPa, x2 = 0 | 1031.02 ± 0.44
323.01 K, 4047 kPa, x2 = 0 | 1031.99 ± 0.44
323.01 K, 5002 kPa, x2 = 0 | 1032.9 ± 0.44
323.01 K, 6005 kPa, x2 = 0 | 1033.9 ± 0.44
323.01 K, 7068 kPa, x2 = 0 | 1034.92 ± 0.44
323.01 K, 8021 kPa, x2 = 0 | 1035.81 ± 0.44
323.01 K, 9013 kPa, x2 = 0 | 1036.76 ± 0.44
323.01 K, 10005 kPa, x2 = 0 | 1037.67 ± 0.44
323.01 K, 10991 kPa, x2 = 0 | 1038.62 ± 0.44
323.01 K, 12034 kPa, x2 = 0 | 1039.58 ± 0.44
323.01 K, 12977 kPa, x2 = 0 | 1040.44 ± 0.44
323.01 K, 13999 kPa, x2 = 0 | 1041.38 ± 0.44
323.01 K, 14991 kPa, x2 = 0 | 1042.26 ± 0.44
323.01 K, 15995 kPa, x2 = 0 | 1043.17 ± 0.44
323.01 K, 16998 kPa, x2 = 0 | 1044.03 ± 0.44
323.01 K, 17983 kPa, x2 = 0 | 1044.93 ± 0.44
323.01 K, 18951 kPa, x2 = 0 | 1045.78 ± 0.44
323.06 K, 10088 kPa, x2 = 0.9217 | 726.5 ± 1
323.06 K, 11019 kPa, x2 = 0.9217 | 748.28 ± 0.83
323.06 K, 12026 kPa, x2 = 0.9217 | 766.89 ± 0.74
323.06 K, 13007 kPa, x2 = 0.9217 | 781.83 ± 0.69
323.06 K, 14004 kPa, x2 = 0.9217 | 794.96 ± 0.66
323.06 K, 15030 kPa, x2 = 0.9217 | 806.9 ± 0.63
323.06 K, 16054 kPa, x2 = 0.9217 | 817.45 ± 0.61
323.06 K, 17033 kPa, x2 = 0.9217 | 826.57 ± 0.59
323.06 K, 18006 kPa, x2 = 0.9217 | 835.18 ± 0.58
323.06 K, 19038 kPa, x2 = 0.9217 | 843.46 ± 0.57
323.06 K, 20051 kPa, x2 = 0.9217 | 850.95 ± 0.56
323.06 K, 21005 kPa, x2 = 0.9217 | 857.68 ± 0.54
323.06 K, 22019 kPa, x2 = 0.9217 | 864.36 ± 0.54
323.06 K, 23033 kPa, x2 = 0.9217 | 870.67 ± 0.53
323.06 K, 24027 kPa, x2 = 0.9217 | 876.59 ± 0.53
323.06 K, 24980 kPa, x2 = 0.9217 | 882.14 ± 0.51
323.08 K, 6997 kPa, x2 = 0.3818 | 994.07 ± 0.43
323.08 K, 8053 kPa, x2 = 0.3818 | 995.85 ± 0.43
323.08 K, 9009 kPa, x2 = 0.3818 | 997.45 ± 0.43
323.08 K, 10081 kPa, x2 = 0.3818 | 999.25 ± 0.43
323.08 K, 11041 kPa, x2 = 0.3818 | 1000.81 ± 0.43
323.08 K, 12024 kPa, x2 = 0.3818 | 1002.4 ± 0.42
323.08 K, 12998 kPa, x2 = 0.3818 | 1003.93 ± 0.42
323.08 K, 14011 kPa, x2 = 0.3818 | 1005.51 ± 0.42
323.08 K, 15018 kPa, x2 = 0.3818 | 1007.08 ± 0.42
323.08 K, 15936 kPa, x2 = 0.3818 | 1008.44 ± 0.42
323.08 K, 17059 kPa, x2 = 0.3818 | 1010.13 ± 0.42
323.08 K, 17995 kPa, x2 = 0.3818 | 1011.52 ± 0.42
323.08 K, 19010 kPa, x2 = 0.3818 | 1013.01 ± 0.42
323.09 K, 8069 kPa, x2 = 0.6996 | 950.76 ± 0.43
323.09 K, 9063 kPa, x2 = 0.6996 | 953.71 ± 0.43
323.09 K, 10074 kPa, x2 = 0.6996 | 956.72 ± 0.46
323.09 K, 11045 kPa, x2 = 0.6996 | 959.45 ± 0.45
323.09 K, 11999 kPa, x2 = 0.6996 | 962.01 ± 0.45
323.09 K, 13038 kPa, x2 = 0.6996 | 964.85 ± 0.45
323.09 K, 14005 kPa, x2 = 0.6996 | 967.35 ± 0.44
323.09 K, 14998 kPa, x2 = 0.6996 | 969.82 ± 0.44
323.09 K, 16004 kPa, x2 = 0.6996 | 972.38 ± 0.44
323.09 K, 17044 kPa, x2 = 0.6996 | 974.92 ± 0.44
323.09 K, 17927 kPa, x2 = 0.6996 | 976.97 ± 0.52
323.15 K, 101 kPa, x2 = 0 | 1026.98 ± 0.44
332.79 K, 7987 kPa, x2 = 0.5661 | 943.05 ± 0.43
332.79 K, 9035 kPa, x2 = 0.5661 | 945.99 ± 0.43
332.79 K, 10035 kPa, x2 = 0.5661 | 948.77 ± 0.43
332.79 K, 11015 kPa, x2 = 0.5661 | 951.37 ± 0.43
332.79 K, 12021 kPa, x2 = 0.5661 | 953.97 ± 0.43
332.79 K, 13022 kPa, x2 = 0.5661 | 956.49 ± 0.43
332.79 K, 14010 kPa, x2 = 0.5661 | 958.85 ± 0.43
332.79 K, 15020 kPa, x2 = 0.5661 | 961.27 ± 0.43
332.79 K, 16037 kPa, x2 = 0.5661 | 963.66 ± 0.43
332.79 K, 17014 kPa, x2 = 0.5661 | 965.85 ± 0.43
332.79 K, 18001 kPa, x2 = 0.5661 | 968.08 ± 0.43
332.79 K, 19018 kPa, x2 = 0.5661 | 970.3 ± 0.43
332.85 K, 1015 kPa, x2 = 0 | 1016.93 ± 0.44
332.85 K, 2035 kPa, x2 = 0 | 1018 ± 0.44
332.85 K, 3004 kPa, x2 = 0 | 1019.06 ± 0.44
332.85 K, 3964 kPa, x2 = 0 | 1020.05 ± 0.44
332.85 K, 4991 kPa, x2 = 0 | 1021.14 ± 0.44
332.85 K, 5081 kPa, x2 = 0.199 | 1002.75 ± 0.43
332.85 K, 6001 kPa, x2 = 0 | 1022.17 ± 0.44
332.85 K, 6051 kPa, x2 = 0.199 | 1004.04 ± 0.43
332.85 K, 7014 kPa, x2 = 0 | 1023.21 ± 0.44
332.85 K, 7075 kPa, x2 = 0.199 | 1005.38 ± 0.43
332.85 K, 7998 kPa, x2 = 0 | 1024.2 ± 0.44
332.85 K, 8033 kPa, x2 = 0.199 | 1006.63 ± 0.43
332.85 K, 9006 kPa, x2 = 0.199 | 1007.88 ± 0.43
332.85 K, 9009 kPa, x2 = 0 | 1025.23 ± 0.44
332.85 K, 9995 kPa, x2 = 0 | 1026.19 ± 0.44
332.85 K, 10006 kPa, x2 = 0.199 | 1009.13 ± 0.43
332.85 K, 10989 kPa, x2 = 0 | 1027.18 ± 0.44
332.85 K, 11013 kPa, x2 = 0.199 | 1010.42 ± 0.43
332.85 K, 12006 kPa, x2 = 0 | 1028.17 ± 0.44
332.85 K, 12053 kPa, x2 = 0.199 | 1011.71 ± 0.43
332.85 K, 13009 kPa, x2 = 0 | 1029.18 ± 0.44
